Source: patent US20150253591A1, “DYE COMPOSITION FOR ELECTROWETTING DISPLAY AND ELECTROWETTING DISPLAY DEVICE” (FUJIFILM CORPORATION, priority 2012, published 2015)
Each block holds one molecule with its values, some of them ahead of it.

What was measured:
Type in all cases: physicochemical
[1] = Relative dielectric constant of nonpolar solvent; conditions: 1 kHz, 20° C. and 40% RH
Experimental: The relative dielectric constant is determined by injecting a nonpolar solvent in a glass cell with a 10-μm cell gap provided with an ITO transparent electrode, and measuring the electrical capacity of the obtained cell using a 2353LCR METER manufactured by NF Corporation (measurement frequency: 1 kHz) at 20° C. and 40% RH.

[2] = Low temperature suitability of dye composition; parameters: key: A dye composition was maintained in a liquid state.; B: A dye composition was not maintained in a liquid state, and changed to a solid state; conditions: -41° C. for 12 hours; for Low temperature suitability, Dihexyl ether (present invention): 20% by mass dye in dihexyl ether; for Low temperature suitability, Dipentyl ether (present invention): 20% by mass dye in dipentyl ether; for Low temperature suitability, Decane (comparative): 20% by mass dye in n-decane
Experimental: Each dye composition was placed in a vial, and the vial was left standing in an ice bath (calcium chloride+ice) at −41° C. for 12 hours. The condition of each dye composition after standing was observed and evaluated according to the following evaluation criteria.
A: A dye composition was maintained in a liquid state.
B: A dye composition was not maintained in a liquid state, and changed to a solid state.

[3] = Solubility of dye in nonpolar solvent; conditions: for Solubility Dihexyl ether: in dihexyl ether at 25° C. and 0.1 MPa; for Solubility n-Decane: in n-decane at 25° C. and 0.1 MPa
Experimental: Each of the prepared 20% by mass solutions (dye compositions) was heated at 50° C. and then left standing at room temperature for 12 hours to obtain a supernatant liquid. The amount of the unsolved dye was weighed and the solubility of each pigment in dihexyl ether or n-decane at 25° C. and 0.1 MPa was calculated.

[4] = High temperature suitability of dye composition; conditions: 180° C. for 2 hours without a cap; for High temperature suitability, Dihexyl ether (present invention): 20% by mass dye in dihexyl ether; for High temperature suitability, Dipentyl ether (present invention): 20% by mass dye in dipentyl ether; for High temperature suitability, Decane (comparative): 20% by mass dye in n-decane
Experimental: Each dye composition was placed in a vial, and the vial was left standing in an oil bath without a cap at 180° C. for 2 hours. The mass of the vial after standing was weighed and evaluated according to the following evaluation criteria.
A: Decrease in the mass of the vial was less than 10%.
B: Decrease in the mass of the vial was 10% or more.

relative dielectric constant ∈r [1]: 2.1
SMILES: CCCCCCOCCCCCC [dihexyl ether]

relative dielectric constant ∈r [1]: 2.1
SMILES: C1CCC(OC2CCCCC2)CC1 [dicyclohexyl ether]

relative dielectric constant ∈r [1]: 2.1
SMILES: CCCCCCCOCCCCCCC [diheptyl ether]

relative dielectric constant ∈r [1]: 2.1
SMILES: CCCCCOCCCCC [dipentyl ether]

Low temperature suitability, Dihexyl ether (present invention) [2]: A | Low temperature suitability, Dipentyl ether (present invention) [2]: A | Low temperature suitability, Decane (comparative) [2]: B | Solubility Dihexyl ether [3]: 20 or more % by mass | Solubility n-Decane [3]: 20 or more % by mass
SMILES: CCCCC(CC)CN(CC(CC)CCCC)c1ccc(/C=C2\C(=O)ON=C2C(C)(C)C)c(C)c1 (stereo not drawn) [Dye P-1]
High temperature suitability, Dihexyl ether (present invention) [4]: A (Decrease in the mass of the vial was less than 10%.) | High temperature suitability, Dipentyl ether (present invention) [4]: A (Decrease in the mass of the vial was less than 10%.) | High temperature suitability, Decane (comparative) [4]: B (Decrease in the mass of the vial was 10% or more.)

Low temperature suitability, Dihexyl ether (present invention) [2]: A | Low temperature suitability, Dipentyl ether (present invention) [2]: A | Low temperature suitability, Decane (comparative) [2]: B | Solubility Dihexyl ether [3]: 20 or more % by mass | Solubility n-Decane [3]: 20 or more % by mass
SMILES: CCCCC(CC)CN(CC(CC)CCCC)c1ccc(/N=C2/C(C)=Nn3nc(C(C)(C)C)nc32)cc1 (stereo not drawn) [Dye P-2]
High temperature suitability, Dihexyl ether (present invention) [4]: A (Decrease in the mass of the vial was less than 10%.) | High temperature suitability, Dipentyl ether (present invention) [4]: A (Decrease in the mass of the vial was less than 10%.) | High temperature suitability, Decane (comparative) [4]: B (Decrease in the mass of the vial was 10% or more.)

relative dielectric constant ∈r [1]: 2.1
SMILES: CCCCCCCCCCCCOCCCCCCCCCCCC [didodecyl ether]
